Reference: patent publication US20230330254A1 (Regeneron Pharmaceuticals, Inc., priority 2022, published 2023)
*1 amine or outer side, *2 acyl side, *3 side chain or, on linkers, in order; H or OH if unused. Where a SMILES comes first, the peptide text is derived from it. [ ]: non-standard residue; d: D form. The star is where a group is joined. Bip(2'-Et-4'-O(CH2)4NH2) = CCc1cc(OCCCCN[*:3])ccc1-c1ccc(C[C@H](N[*:1])C(=O)[*:2])cc1; Bip(2'-Et,4'-O(CH2)4NH2) = CCc1cc(OCCCCN)ccc1-c1ccc(C[C@H](N)C(=O)O)cc1; Malonyl(2,2-Me2,histaminyl) = CC(C)(C(=O)NCCc1cnc[nH]1)C(=O)*; X7 = O=C(NCCOCCOCCOCCOC(=O)*)OC[C@@H]1[C@@H]2CCC#CCC[C@@H]21; Nva(5-(3,5-Me2Ph)) = Cc1cc(C)cc(CCC[C@H](N)C(=O)O)c1; Ala(1H-tetrazol-5-yl) = N[C@@H](Cc1nnn[nH]1)C(=O)O; αMePhe(2-F) = C[C@](N)(Cc1ccccc1F)C(=O)O; X6 = CC(C)(C(=O)NO)C(=O)*

What was measured:
human GLP1R [1] = biological target: T1, human GLP1R (Homo sapiens, UniProt P43220); experiment: Human GLP1R cAMP accumulation assay; type: cell-based; design: HEK293 cells over-expressing full length human GLP-1R were utilized; expressed in transfected cells; host or cells: HEK293 (HEK293/hGLP1R); conditions: HEK293/hGLP1R cells; Table 4; read-out: cAMP EC50
T1 sequence (P43220 24-463): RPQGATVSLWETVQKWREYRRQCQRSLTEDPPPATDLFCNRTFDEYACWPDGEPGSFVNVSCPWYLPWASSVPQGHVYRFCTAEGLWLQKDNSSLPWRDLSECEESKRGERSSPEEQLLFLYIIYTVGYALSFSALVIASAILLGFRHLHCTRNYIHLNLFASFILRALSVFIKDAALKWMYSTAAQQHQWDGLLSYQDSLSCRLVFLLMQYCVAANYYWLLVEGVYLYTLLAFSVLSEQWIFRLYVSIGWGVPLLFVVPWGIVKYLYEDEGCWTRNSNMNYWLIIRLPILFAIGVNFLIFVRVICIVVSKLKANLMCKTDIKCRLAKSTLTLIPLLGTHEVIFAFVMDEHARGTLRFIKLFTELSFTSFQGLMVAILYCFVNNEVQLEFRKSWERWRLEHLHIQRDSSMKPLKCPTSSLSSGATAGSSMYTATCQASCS
Description: 8.1 Human GLP1R cAMP Accumulation Assay (Cyclic AMP Determination)
The functional activity of the test compounds for agonizing GLP1R were evaluated using a cell-based assay. For the assay, HEK293 cells over-expressing full length human GLP-1R were utilized and the downstream cAMP accumulation was assessed as a measure of human GLP-1R stimulation. […] Diluted compounds were transferred to OptiPlates (100 nL/well) using an Echo liquid handler. HEK293/hGLP1R cells were thawed in 37° C. water-bath, washed 2 times with HBSS and re-suspended in assay buffer (HBSS+5 mM HEPES+500 μM IBMX+0.1% BSA). […] After centrifugation, the assay plate was incubated at 23° C. for 30 min. The reaction was terminated by adding 10 μL of lysis buffer containing D2-cAMP and a cAMP-antibody from the cyclic AMP immunoassay kit (Cisbio, Cat #62AM4PEJ). […] The levels of cAMP per well were calculated using a standard curve generated by GraphPad Prism. Percent activity was calculated according to the formula (% Activity=100%*(cAMP level-LC)/(HC-LC)). EC50 values were fitted from a four-parameter logistic equation over a 10-point response curve (GraphPad Prism).

HEK293/CRE-Luc cells = experiment: Luciferase reporter assay, HEK293/CRE-Luc cells without GLP1R (Example 17); type: cell-based, human; conditions: HEK293/CRE-Luc cells without hGLP1R, payloads and linker-payloads; for EC50: read-out: EC50
Description: (§1) To test the activity of GLP1R agonist payloads, GLP1R agonist linker-payloads (LPs), and anti-GLP1R antibody tethered drug conjugates (ATDCs) of the invention, a cell-based cAMP responsive luciferase reporter assay was developed. To generate the assay cell line, the firefly luciferase gene was placed under the control of a cAMP response element (CRE) located upstream of a minimal promoter and transfected into HEK293 cells and referred to herein as HEK293/CRE-Luc cells.
(§2) Three-fold serial dilutions of free payloads or LPs were prepared in 100% DMSO, transferred to fresh assay media, and added to the cells at a final constant DMSO concentration of 0.2%. The last well in the plate served as a blank control containing only the assay media and 0.2% DMSO (untreated well) and was plotted as a continuation of the 3-fold serial dilution. Four to six hours later, luciferase activity was determined after the addition of One-Glo™ reagent (Promega, Cat #E6130) to each well. Relative light units (RLUs) were measured on an Envision luminometer (PerkinElmer) and EC50 values were determined using a four-parameter logistic equation over a 12-point dose response curve (GraphPad Prism). The signal to noise (S/N) was determined by taking the ratio of the highest RLU on the dose response curve to the RLU in the untreated wells. Data was generated across several experiments (A-E) with M2361 serving as a reference standard in each experiment to calculate the payload relative potency ((M2361 EC50/payload EC50)*100)) and relative S/N ((payload SN/M2361 SN)*100)).

human GLP1R [2] = biological target: T1, human GLP1R; experiment: Luciferase reporter assay, HEK293/CRE-Luc/hGLP1R (Example 17); type: cell-based; design: engineered to express full-length human GLP1R, cynomolgus GLP1R; expressed in transfected cells; host or cells: HEK293/CRE-Luc; conditions: HEK293/CRE-Luc/hGLP1R; for S/N: highest RLU / RLU of untreated wells; for EC50: payloads and linker-payloads, experiments A-E, M2361 repeated in each, read-out: EC50; for Relative Potency (% M2361 EC50) / Relative Signal:Noise (% M2361): relative to M2361 of the same experiment
Description: as §1, §2

Compound | EC50 (human GLP1R [1]) [nM] | S/N (HEK293/CRE-Luc cells) | EC50 (HEK293/CRE-Luc cells) [nM] | S/N (human GLP1R [2]) | EC50 (human GLP1R [2]) [nM] | Relative Potency (% M2361 EC50) (human GLP1R [2]) [%] | Relative Signal:Noise (% M2361) (human GLP1R [2]) [%]
CCc1cc(OC)ccc1-c1ccc(C[C@H](NC(=O)[C@H](CC(=O)O)NC(=O)[C@H](CO)NC(=O)C(NC(=O)[C@](C)(Cc2ccccc2F)NC(=O)[C@@H](NC(=O)CNC(=O)[C@H](Cc2nn[nH]n2)NC(=O)C(C)(C)C(=O)NCCc2cnc[nH]2)[C@@H](C)O)[C@@H](C)O)C(=O)N[C@@H](CCCc2ccc(OCCCCN)cc2)C(N)=O)cc1 (stereo in doubt) [P24] | 0.136 | 1.0 | > 200 | 65.0 | 0.0316 | 16.8 | 98.9
CCc1cc(OCCCCNC(=O)OCCOCCOCCOCCNC(=O)OC[C@@H]2[C@@H]3CCC#CCC[C@@H]32)ccc1-c1ccc(C[C@H](NC(=O)[C@H](CC(=O)O)NC(=O)[C@H](CO)NC(=O)[C@@H](NC(=O)[C@](C)(Cc2ccccc2F)NC(=O)[C@@H](NC(=O)CNC(=O)[C@H](Cc2nn[nH]n2)NC(=O)C(C)(C)C(=O)NCCc2cnc[nH]2)[C@@H](C)O)[C@@H](C)O)C(=O)N[C@@H](CCCc2cc(C)cc(C)c2)C(N)=O)cc1 [LP5, BCN-PEG4-carba-mate P9] ({Malonyl(2,2-Me2,histaminyl)}-[Ala(1H-tetrazol-5-yl)]GT[αMePhe(2-F)]TSD[Bip(2'-Et-4'-O(CH2)4NH2)](X7)[Nva(5-(3,5-Me2Ph))]-NH2) | 0.044 | 1.8 | > 200 | 54.8 | 0.0242 | 21.9 | 83.4
CCc1cc(OCCCCNC(=O)[C@H](CO)NC(=O)CNC(=O)CNC(=O)CNC(=O)CNC(=O)CCC(=O)N2Cc3ccccc3C#Cc3ccccc32)ccc1-c1ccc(C[C@H](NC(=O)[C@H](CC(=O)O)NC(=O)[C@H](CO)NC(=O)[C@@H](NC(=O)[C@](C)(Cc2ccccc2F)NC(=O)[C@@H](NC(=O)CNC(=O)[C@H](Cc2nn[nH]n2)NC(=O)C(C)(C)C(=O)NCCc2cnc[nH]2)[C@@H](C)O)[C@@H](C)O)C(=O)N[C@@H](CCCc2cc(C)cc(C)c2)C(N)=O)cc1 [LP6, DIBAC- suc-G4S- P9] | 0.436 | 1.4 | > 200 | 65.7 | 0.0251 | 21.2 | 99.9
CCc1cc(OCCCCNC(=O)CNC(=O)CNC(=O)CNC(=O)CNC(=O)[C@H](CO)NC(=O)CCC(=O)N2Cc3ccccc3C#Cc3ccccc32)ccc1-c1ccc(C[C@H](NC(=O)[C@H](CC(=O)O)NC(=O)[C@H](CO)NC(=O)[C@@H](NC(=O)[C@](C)(Cc2ccccc2F)NC(=O)[C@@H](NC(=O)CNC(=O)[C@H](Cc2nn[nH]n2)NC(=O)C(C)(C)C(=O)NCCc2cnc[nH]2)[C@@H](C)O)[C@@H](C)O)C(=O)N[C@@H](CCCc2cc(C)cc(C)c2)C(N)=O)cc1 [LP7, DIBAC-suc-SG4-P9] | 0.378 | 1.1 | > 200 | 55.3 | 0.00972 | 54.6 | 84.1
CCc1cc(OCCCCn2cc(COCCOCCOCCOCCNC(=O)OC[C@@H]3[C@@H]4CCC#CCC[C@@H]43)nn2)ccc1-c1ccc(C[C@H](NC(=O)[C@H](CC(=O)O)NC(=O)[C@H](CO)NC(=O)[C@@H](NC(=O)[C@](C)(Cc2ccccc2F)NC(=O)[C@@H](NC(=O)CNC(=O)[C@H](Cc2nn[nH]n2)NC(=O)C(C)(C)C(=O)NCCc2cnc[nH]2)[C@@H](C)O)[C@@H](C)O)C(=O)N[C@@H](CCCc2cc(C)cc(C)c2)C(N)=O)cc1 [LP9, BCN-PEG4-triazole-P8] | 0.078 | 1.3 | > 200 | 73.8 | 0.0174 | 30.5 | 112.2
CCc1cc(OCCCCNC(=O)[C@H](CO)NC(=O)CNC(=O)CNC(=O)CNC(=O)CNC(=O)CCC(=O)N2Cc3ccccc3C#Cc3ccccc32)ccc1-c1ccc(C[C@H](NC(=O)[C@H](CC(=O)O)NC(=O)[C@H](CO)NC(=O)[C@@H](NC(=O)[C@](C)(Cc2ccccc2F)NC(=O)[C@@H](NC(=O)CNC(=O)[C@H](Cc2nn[nH]n2)NC(=O)C(C)(C)C(=O)NCCc2cnc[nH]2)[C@@H](C)O)[C@@H](C)O)C(=O)N[C@@H](CCCc2cc(C)cc(C)c2)C(=O)Nc2ccccc2)cc1 [LP15, DIBAC- suc-G4S- P23] | 0.649 | 1.5 | > 200 | 48.1 | 0.0704 | 7.5 | 73.2
CCc1cc(OCCCCNC(=O)CNC(=O)CNC(=O)CNC(=O)CNC(=O)[C@H](CO[C@@H]2O[C@H](CO)[C@@H](O)[C@H](O)[C@H]2O)NC(=O)CCNC(=O)OC[C@@H]2[C@@H]3CCC#CCC[C@@H]32)ccc1-c1ccc(C[C@H](NC(=O)[C@H](CC(=O)O)NC(=O)[C@H](CO)NC(=O)[C@@H](NC(=O)[C@](C)(Cc2ccccc2F)NC(=O)[C@@H](NC(=O)CNC(=O)[C@H](Cc2nn[nH]n2)NC(=O)C(C)(C)C(=O)NCCc2cnc[nH]2)[C@@H](C)O)[C@@H](C)O)C(=O)N[C@@H](CCCc2cc(C)cc(C)c2)C(N)=O)cc1 [LP18, BCN NHC2 H4CO (glucose) SG4-P9] | 0.458 | 1.1 | > 200 | 62.1 | 0.0467 | 11.4 | 94.4
CCc1cc(OCCCCN)ccc1-c1ccc(C[C@H](NC(=O)[C@H](CC(=O)O)NC(=O)[C@H](CO)NC(=O)[C@@H](NC(=O)[C@](C)(Cc2ccccc2F)NC(=O)[C@@H](NC(=O)CNC(=O)[C@H](Cc2nn[nH]n2)NC(=O)C(C)(C)C(=O)NO)[C@@H](C)O)[C@@H](C)O)C(=O)N[C@@H](CCCc2cc(C)cc(C)c2)C(N)=O)cc1 [P5] (X6-[Ala(1H-tetrazol-5-yl)]GT[αMePhe(2-F)]TSD[Bip(2'-Et,4'-O(CH2)4NH2)][Nva(5-(3,5-Me2Ph))]-NH2) | 0.115 | 1.3 | > 200 | 50.6 | 0.127 | 4.2 | 76.9
CCc1cc(OCCCCN)ccc1-c1ccc(C[C@H](NC(=O)[C@H](CC(=O)O)NC(=O)[C@H](CO)NC(=O)[C@@H](NC(=O)[C@](C)(Cc2ccccc2F)NC(=O)[C@@H](NC(=O)CNC(=O)[C@H](Cc2nn[nH]n2)NC(=O)[C@@H](N)CO)[C@@H](C)O)[C@@H](C)O)C(=O)N[C@@H](CCCc2cc(C)cc(C)c2)C(N)=O)cc1 [P7] (H-S[Ala(1H-tetrazol-5-yl)]GT[αMePhe(2-F)]TSD[Bip(2'-Et,4'-O(CH2)4NH2)][Nva(5-(3,5-Me2Ph))]-NH2) | 2.06 | 1.0 | > 200 | 48.4 | 1.89 | 0.3 | 73.6
CCc1cc(OCCCCN)ccc1-c1ccc(C[C@H](NC(=O)[C@H](CC(=O)O)NC(=O)[C@H](CO)NC(=O)[C@@H](NC(=O)[C@](C)(Cc2ccccc2F)NC(=O)[C@@H](NC(=O)CNC(=O)[C@H](Cc2nn[nH]n2)NC(=O)[C@H](C)NC(=O)[C@@H](N)Cc2ccc(O)cc2)[C@@H](C)O)[C@@H](C)O)C(=O)N[C@@H](CCCc2cc(C)cc(C)c2)C(N)=O)cc1 [P18] | 0.37 | 1.4 | > 200 | 68.2 | 0.0613 | 8.7 | 103.6
